Data taken from PMC11864979, “First-in-class ultralong-target-residence-time p38α inhibitors as a mitosis-targeted therapy for colorectal cancer” (Nature Cancer, 2025).
Where two headings read alike, the source gives them in different places.

Columns and labels:
Experiment in all cases: selectivity profiling in a panel of 340 wild-type kinases (Reaction Biology Europe)
Type in all cases: binding
340 wild-type kinases [1] = target: T1, 340 wild-type kinases (Homo sapiens, UniProt Q13164)
T1 construct: purchased Reaction Biology Europe
T1 sequence (Q13164 whole entry): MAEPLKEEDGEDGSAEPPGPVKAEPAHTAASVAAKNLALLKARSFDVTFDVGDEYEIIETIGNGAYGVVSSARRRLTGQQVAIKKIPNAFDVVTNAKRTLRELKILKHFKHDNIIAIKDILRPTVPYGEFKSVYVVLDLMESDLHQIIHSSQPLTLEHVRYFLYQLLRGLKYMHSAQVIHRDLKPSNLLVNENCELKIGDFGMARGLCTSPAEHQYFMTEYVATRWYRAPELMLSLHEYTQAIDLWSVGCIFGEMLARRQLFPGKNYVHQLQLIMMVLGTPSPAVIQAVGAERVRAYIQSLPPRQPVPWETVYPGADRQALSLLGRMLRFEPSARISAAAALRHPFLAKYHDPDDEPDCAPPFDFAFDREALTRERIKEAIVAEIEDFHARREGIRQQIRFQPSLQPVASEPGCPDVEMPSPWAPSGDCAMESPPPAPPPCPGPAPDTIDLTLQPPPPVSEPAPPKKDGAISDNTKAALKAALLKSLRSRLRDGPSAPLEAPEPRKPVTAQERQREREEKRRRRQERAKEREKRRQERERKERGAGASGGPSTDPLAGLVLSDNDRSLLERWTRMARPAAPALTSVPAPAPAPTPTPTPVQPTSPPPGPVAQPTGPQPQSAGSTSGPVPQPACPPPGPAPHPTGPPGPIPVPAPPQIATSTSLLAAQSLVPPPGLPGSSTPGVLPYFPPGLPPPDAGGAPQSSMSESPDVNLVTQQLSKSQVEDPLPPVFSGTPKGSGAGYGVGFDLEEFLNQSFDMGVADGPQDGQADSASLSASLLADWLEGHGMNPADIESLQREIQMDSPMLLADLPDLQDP

340 wild-type kinases [2] = target: T2, 340 wild-type kinases (Homo sapiens, UniProt P41240)
T2 construct: purchased Reaction Biology Europe
T2 sequence (P41240 whole entry): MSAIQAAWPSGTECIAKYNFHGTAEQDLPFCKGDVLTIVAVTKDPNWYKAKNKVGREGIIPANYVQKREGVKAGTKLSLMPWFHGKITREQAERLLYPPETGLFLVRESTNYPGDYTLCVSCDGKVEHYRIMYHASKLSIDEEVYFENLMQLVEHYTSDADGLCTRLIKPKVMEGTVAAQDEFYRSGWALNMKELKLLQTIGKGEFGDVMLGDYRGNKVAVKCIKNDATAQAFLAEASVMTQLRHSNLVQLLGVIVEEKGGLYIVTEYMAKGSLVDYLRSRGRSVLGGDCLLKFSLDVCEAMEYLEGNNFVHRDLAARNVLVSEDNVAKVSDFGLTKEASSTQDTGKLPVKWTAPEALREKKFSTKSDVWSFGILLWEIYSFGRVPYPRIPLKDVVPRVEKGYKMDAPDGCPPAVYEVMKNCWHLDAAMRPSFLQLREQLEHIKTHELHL

340 wild-type kinases [3] = target: T3, 340 wild-type kinases (Homo sapiens, UniProt P19784)
T3 construct: purchased Reaction Biology Europe
T3 sequence (P19784 whole entry): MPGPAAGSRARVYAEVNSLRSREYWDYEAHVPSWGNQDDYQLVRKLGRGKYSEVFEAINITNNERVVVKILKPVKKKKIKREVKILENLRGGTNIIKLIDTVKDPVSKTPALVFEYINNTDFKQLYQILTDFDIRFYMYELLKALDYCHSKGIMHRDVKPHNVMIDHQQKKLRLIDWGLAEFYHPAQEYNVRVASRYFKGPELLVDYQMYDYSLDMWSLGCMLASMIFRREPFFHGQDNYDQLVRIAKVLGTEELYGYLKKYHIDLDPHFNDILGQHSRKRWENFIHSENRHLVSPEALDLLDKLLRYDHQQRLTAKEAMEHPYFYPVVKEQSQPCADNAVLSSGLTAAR

340 wild-type kinases [4] = target: T4, 340 wild-type kinases (Homo sapiens, UniProt O14920)
T4 construct: purchased Reaction Biology Europe
T4 sequence (O14920 1-756): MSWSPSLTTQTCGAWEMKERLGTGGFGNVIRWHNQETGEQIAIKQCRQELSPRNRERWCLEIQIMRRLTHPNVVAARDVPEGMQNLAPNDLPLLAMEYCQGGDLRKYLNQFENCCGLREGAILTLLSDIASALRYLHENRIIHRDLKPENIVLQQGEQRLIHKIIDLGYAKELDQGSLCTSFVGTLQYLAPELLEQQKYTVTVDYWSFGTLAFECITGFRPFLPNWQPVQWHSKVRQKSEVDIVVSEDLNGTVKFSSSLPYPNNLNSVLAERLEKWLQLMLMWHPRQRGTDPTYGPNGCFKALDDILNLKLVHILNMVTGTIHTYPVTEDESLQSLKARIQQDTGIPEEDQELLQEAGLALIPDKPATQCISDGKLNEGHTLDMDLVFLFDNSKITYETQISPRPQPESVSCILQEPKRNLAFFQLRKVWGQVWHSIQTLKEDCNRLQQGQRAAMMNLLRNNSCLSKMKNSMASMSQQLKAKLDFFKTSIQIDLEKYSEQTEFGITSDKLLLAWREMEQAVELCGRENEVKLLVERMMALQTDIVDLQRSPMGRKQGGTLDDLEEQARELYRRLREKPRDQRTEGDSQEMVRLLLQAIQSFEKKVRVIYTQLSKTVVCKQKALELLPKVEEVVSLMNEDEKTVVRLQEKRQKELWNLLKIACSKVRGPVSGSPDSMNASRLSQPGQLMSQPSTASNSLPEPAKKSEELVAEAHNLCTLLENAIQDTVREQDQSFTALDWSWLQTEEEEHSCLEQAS

340 wild-type kinases [5] = target: T5, 340 wild-type kinases (Homo sapiens, UniProt Q8TDX7)
T5 construct: purchased Reaction Biology Europe
T5 sequence (Q8TDX7 whole entry): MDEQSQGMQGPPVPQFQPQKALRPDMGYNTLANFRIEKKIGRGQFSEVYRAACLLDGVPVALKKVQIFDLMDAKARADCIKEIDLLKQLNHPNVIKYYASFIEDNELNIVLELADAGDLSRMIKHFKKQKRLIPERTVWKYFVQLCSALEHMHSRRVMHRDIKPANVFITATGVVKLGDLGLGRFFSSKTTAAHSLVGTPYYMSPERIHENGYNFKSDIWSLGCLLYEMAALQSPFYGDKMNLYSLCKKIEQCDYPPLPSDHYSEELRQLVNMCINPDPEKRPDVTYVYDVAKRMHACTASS

340 wild-type kinases [6] = target: T6, 340 wild-type kinases (Homo sapiens, UniProt P43403)
T6 construct: purchased Reaction Biology Europe
T6 sequence (P43403 1-619): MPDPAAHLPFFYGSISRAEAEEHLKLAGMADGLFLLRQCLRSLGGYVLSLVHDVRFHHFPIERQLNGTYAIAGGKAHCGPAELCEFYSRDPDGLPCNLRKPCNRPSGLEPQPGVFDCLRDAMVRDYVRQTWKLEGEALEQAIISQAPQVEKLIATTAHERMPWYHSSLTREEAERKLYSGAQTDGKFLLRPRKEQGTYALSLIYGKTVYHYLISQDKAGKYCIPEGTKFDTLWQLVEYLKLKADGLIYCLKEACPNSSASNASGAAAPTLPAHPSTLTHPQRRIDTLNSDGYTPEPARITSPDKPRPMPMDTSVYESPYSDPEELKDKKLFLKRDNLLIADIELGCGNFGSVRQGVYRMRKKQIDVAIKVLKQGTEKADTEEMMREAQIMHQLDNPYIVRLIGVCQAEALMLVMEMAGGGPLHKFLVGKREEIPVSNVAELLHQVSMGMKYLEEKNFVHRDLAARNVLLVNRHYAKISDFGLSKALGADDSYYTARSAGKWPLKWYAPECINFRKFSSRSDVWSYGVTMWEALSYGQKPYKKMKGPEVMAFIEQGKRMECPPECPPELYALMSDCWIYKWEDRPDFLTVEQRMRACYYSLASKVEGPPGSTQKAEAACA

340 wild-type kinases [7] = target: T7, 340 wild-type kinases (Homo sapiens, UniProt Q9UEE5)
T7 construct: purchased Reaction Biology Europe
T7 sequence (Q9UEE5 1-414): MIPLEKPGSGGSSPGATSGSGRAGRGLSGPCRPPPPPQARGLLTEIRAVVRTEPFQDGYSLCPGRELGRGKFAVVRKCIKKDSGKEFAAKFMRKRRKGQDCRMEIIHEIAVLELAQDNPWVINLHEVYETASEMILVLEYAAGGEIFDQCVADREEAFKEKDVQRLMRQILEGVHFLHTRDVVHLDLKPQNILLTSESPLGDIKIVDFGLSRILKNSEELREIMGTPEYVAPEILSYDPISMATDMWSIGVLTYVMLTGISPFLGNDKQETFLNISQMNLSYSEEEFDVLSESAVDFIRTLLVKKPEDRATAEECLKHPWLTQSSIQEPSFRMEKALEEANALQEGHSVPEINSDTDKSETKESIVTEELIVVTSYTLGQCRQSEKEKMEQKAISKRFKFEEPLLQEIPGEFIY

340 wild-type kinases [8] = target: T8, 340 wild-type kinases (Homo sapiens, UniProt Q00537)
T8 construct: purchased Reaction Biology Europe
T8 sequence (Q00537 whole entry): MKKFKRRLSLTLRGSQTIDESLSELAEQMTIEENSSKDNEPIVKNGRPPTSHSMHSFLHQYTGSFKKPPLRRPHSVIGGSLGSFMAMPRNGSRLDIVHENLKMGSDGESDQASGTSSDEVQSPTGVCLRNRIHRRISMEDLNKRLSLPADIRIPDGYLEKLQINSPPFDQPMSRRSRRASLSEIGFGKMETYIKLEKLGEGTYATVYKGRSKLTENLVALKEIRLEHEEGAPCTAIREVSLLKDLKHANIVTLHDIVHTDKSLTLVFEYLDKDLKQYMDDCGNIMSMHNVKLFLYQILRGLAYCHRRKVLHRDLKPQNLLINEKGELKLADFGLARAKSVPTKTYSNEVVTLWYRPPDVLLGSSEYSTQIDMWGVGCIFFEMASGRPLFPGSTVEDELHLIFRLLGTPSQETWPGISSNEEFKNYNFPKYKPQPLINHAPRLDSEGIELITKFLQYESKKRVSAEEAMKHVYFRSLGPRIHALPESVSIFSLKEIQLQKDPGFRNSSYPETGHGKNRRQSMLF

340 wild-type kinases [9] = target: T9, 340 wild-type kinases (Homo sapiens, UniProt Q9HC98)
T9 construct: purchased Reaction Biology Europe
T9 sequence (Q9HC98 whole entry): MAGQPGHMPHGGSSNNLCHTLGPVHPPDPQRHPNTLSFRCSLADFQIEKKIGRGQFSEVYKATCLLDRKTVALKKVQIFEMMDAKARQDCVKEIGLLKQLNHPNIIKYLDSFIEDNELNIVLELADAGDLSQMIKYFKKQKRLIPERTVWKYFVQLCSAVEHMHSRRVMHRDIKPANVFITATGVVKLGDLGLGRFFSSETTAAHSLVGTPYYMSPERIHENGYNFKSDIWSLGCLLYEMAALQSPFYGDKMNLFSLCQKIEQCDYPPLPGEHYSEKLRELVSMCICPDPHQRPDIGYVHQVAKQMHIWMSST

With `CNC(=O)c1ccc2c(c1)C(=O)c1ccc(Nc3ccc(F)c(NC(=O)C4CC4)c3)cc1CC2` [Compound 2015] the remaining activity at 0.2 µM (340 wild-type kinases [1]; 0.2 µM 2015, read-out: ERK5 residual activity) was 112%, the remaining activity at 1 µM (340 wild-type kinases [1]; 1 µM 2015, read-out: ERK5 residual activity) was 99% and the remaining activity at 0.2 µM (340 wild-type kinases [1]; ERK5, 0.2 µM, read-out: residual activity) was 112%. For the same compound, the remaining activity at 1 µM (340 wild-type kinases [1]; ERK5, 1 µM, read-out: residual activity) was 99%, the remaining activity at 0.2 µM (340 wild-type kinases [2]; 0.2 µM 2015, read-out: CSK residual activity) was 114% and the remaining activity at 1 µM (340 wild-type kinases [2]; 1 µM 2015, read-out: CSK residual activity) was 93.1%. For the same compound, the remaining activity at 0.2 µM (340 wild-type kinases [2]; CSK, 0.2 µM, read-out: residual activity) was 114%, the remaining activity at 1 µM (340 wild-type kinases [2]; CSK, 1 µM, read-out: residual activity) was 93.1% and the remaining activity at 0.2 µM (340 wild-type kinases [3]; 0.2 µM 2015, read-out: CK2alpha2 residual activity) was 102%. It also gave a remaining activity at 1 µM (340 wild-type kinases [3]; 1 µM 2015, read-out: CK2alpha2 residual activity) of 97.2%, a remaining activity at 0.2 µM (340 wild-type kinases [3]; CK2alpha2, 0.2 µM, read-out: residual activity) of 102% and a remaining activity at 1 µM (340 wild-type kinases [3]; CK2alpha2, 1 µM, read-out: residual activity) of 97.2%. For the same compound, the remaining activity at 0.2 µM (340 wild-type kinases [4]; 0.2 µM 2015, read-out: IKKbeta residual activity) was 108%, the remaining activity at 1 µM (340 wild-type kinases [4]; 1 µM 2015, read-out: IKKbeta residual activity) was 99% and the remaining activity at 0.2 µM (340 wild-type kinases [4]; IKKbeta, 0.2 µM, read-out: residual activity) was 108%. The remaining activity at 1 µM (340 wild-type kinases [4]; IKKbeta, 1 µM, read-out: residual activity) was 99%, the remaining activity at 0.2 µM (340 wild-type kinases [5]; 0.2 µM 2015, read-out: NEK7 residual activity) was 119% and the remaining activity at 1 µM (340 wild-type kinases [5]; 1 µM 2015, read-out: NEK7 residual activity) was 110%. For the same compound, the remaining activity at 0.2 µM (340 wild-type kinases [5]; NEK7, 0.2 µM, read-out: residual activity) was 119%, the remaining activity at 0.2 µM (340 wild-type kinases [6]; 0.2 µM 2015, read-out: ZAP70 residual activity) was 122% and the remaining activity at 1 µM (340 wild-type kinases [6]; 1 µM 2015, read-out: ZAP70 residual activity) was 100%. The remaining activity at 0.2 µM (340 wild-type kinases [6]; ZAP70, 0.2 µM, read-out: residual activity) was 122%, the remaining activity at 1 µM (340 wild-type kinases [6]; ZAP70, 1 µM, read-out: residual activity) was 100% and the remaining activity at 0.2 µM (340 wild-type kinases [7]; 0.2 µM 2015, read-out: STK17A residual activity) was 109%. It also gave a remaining activity at 1 µM (340 wild-type kinases [7]; 1 µM 2015, read-out: STK17A residual activity) of 97.8%, a remaining activity at 0.2 µM (340 wild-type kinases [7]; STK17A, 0.2 µM, read-out: residual activity) of 109% and a remaining activity at 1 µM (340 wild-type kinases [7]; STK17A, 1 µM, read-out: residual activity) of 97.8%. The remaining activity at 0.2 µM (340 wild-type kinases [8]; 0.2 µM 2015, read-out: CDK17/p35NCK residual activity) was 94.8%, the remaining activity at 1 µM (340 wild-type kinases [8]; 1 µM 2015, read-out: CDK17/p35NCK residual activity) was 93.6% and the remaining activity at 1 µM (340 wild-type kinases [8]; CDK17/p35NCK, 1 µM, read-out: residual activity) was 93.6%. The remaining activity at 0.2 µM (340 wild-type kinases [9]; 0.2 µM 2015, read-out: NEK6 residual activity) was 95.6%, the remaining activity at 1 µM (340 wild-type kinases [9]; 1 µM 2015, read-out: NEK6 residual activity) was 99.3% and the remaining activity at 0.2 µM (340 wild-type kinases [9]; NEK6, 0.2 µM, read-out: residual activity) was 95.6%. The remaining activity at 1 µM (340 wild-type kinases [9]; NEK6, 1 µM, read-out: residual activity) was 99.3%.
